Experimental findings from US20250381165A1, “Method of Use for Benzofuran Compounds” (Tampa Bay Research Institute, Inc., priority 2024, published 2025) are described below.

The target in test [1] is T1, MHC class I H-2Kb tetramer (Mus musculus, UniProt P01901).
T1 construct: purchased MBL International Corporation TB-7400-K2
The test is described as follows: QuickSwitch tetramer peptide exchange assay, H-2Kb. The class given is biochemical, murine. The following applies: p<0.001; p=0.0013.

Test [2] relates to CD45+/MHC II/CD11c+ splenocytes. The test is described as follows: In vivo SIINFEKL loading, flow cytometry of splenocytes. More on the design: species or system C57BL/6NCrl mice. The note with it: CD45+/MHC II/CD11c+ population. On the procedure:
Since the oral route of drug delivery is preferred, various doses of BzFβ (1, 2, 4 mg) were administered by oral gavage, immediately following an iv injection of 50 μg SIINFEKL peptide. One-hour post-treatment the blood and spleens from each mouse was collected. Blood samples were processed as described above. Spleens were collected in 4 mL of Hanks Balanced Salt Solution (HBSS) and converted to a single cell suspension using sterile pouches and a Steward Stomacher 80 Biomaster Blender (Fisher Scientific, cat. no. 14-285-27). The resulting cell suspension was pelleted and suspended in 4 mL freshly prepared red blood cell lysis buffer (150 mM NH4Cl, 10 mM NaHCO3, 0.1 mM EDTA in sterile distilled H2O) for 1-3 minutes. The splenocytes were pelleted and filtered through […] EASY strainer filters (USA Scientific, cat. no. 5654-2070). The cell count was determined using the MUSE cell viability kit (MCH600103) and MUSE Cell Analyzer (Luminex Corp, Austin TX).
For peptide loading, splenocytes were prepared to 5×10^5/mL in cRPMI, then 100 μL of cells was added to wells of clear round-bottom 96 well tissue culture plates. […] Cells were gated based on live single-cell populations and positives were assessed using isotype controls and fluor-minus-one analysis when needed. Data were analyzed using the Attune NxT software or FlowJo versions 10.7 and 10.8.

Test [3] relates to B16F10 cells (B3Z activation). Briefly: B3Z activation by B16F10 (OVA or SIINFEKL). The class given is cell-based, murine. As for the experimental part:
B16F10 were plated at a density of 2.5 or 5×10^4 cells/well (100 μL/well in 96 well plates) and cultured overnight in cDMEM. The cells were washed with DPBS and then treated for 1-24 h with the indicated concentrations of BzFβ or co-treated with the indicated concentrations of BzFβ and 1.0 mg/mL OVA, suspended in complete media. Cells treated with BzFβ only were pulsed with 2 nM SIINFEKL pulsed for 1 h. The cells were then co-cultured with equal number of B3Z cells at 37° C. for 19 h.
In this experiment the activity of the dipeptide, GL, was also examined, as it has been previously reported to function as a peptide exchange factor. (Saini, et al., Dipeptides catalyze rapid peptide exchange on MHC class I molecules. Proc Natl Acad Sci USA. 2015 Jan. 6; 112(1):202-7; Saini, et al., Empty peptide-receptive MHC class I molecules for efficient detection of antigen-specific T cells. Sci Immunol. 2019 Jul. 19; 4(37):eaau9039). B16F10 were plated at a density of 2.5 or 5×10^4 cells/well (100 μL/well in 96 well plates) and cultured overnight in cDMEM. The cells were washed with DPBS and then co-treated for 24 h with 10 mM (1.88 mg/mL) of GL and 1.0 mg/mL OVA or were pulsed with 2 nM SIINFEKL for 1 h following treatment with 10 mM GL in complete media. The cells were then co-cultured with an equal number of B3Z cells at 37° C. for 19 h.

For test [4], the system named is MHC class I H-2Kb on DC2.4. Briefly: Surface MHC class I H-2Kb on DC2.4 (AF6-88.5.5.3 flow cytometry). The class given is cell-based, murine. The note with it: DC2.4, 25 μg/mL. On the procedure:
By using an MHC class I H-2K^b specific antibody, a relative comparison of the surface MHC class I was measured before and after BzFβ treatment of DC2.4 and IMG cells. […] Cells were centrifuged and washed using cold FACS buffer (DPBS with 5% FBS, 2 mM EDTA, 0.1% sodium azide). Cells were blocked with Fc block (bioLegend™; cat. no. 101320) for 10 min to 15 min to inhibit non-specific binding, followed by staining with fluorophore-conjugated antibodies; one set of cells was stained with the PE-labeled MHC/SIINFEKL specific antibody (clone 25-D1.16, Invitrogen™, Thermo Fisher Scientific Inc., Waltham, MA; cat. no. 12-5743-82), and the other set was stained with the PE-labeled MHC class I H-2Kb specific antibody (AF6-88.5.5.3,Invitrogen™, Thermo Fisher Scientific Inc., Waltham, MA; cat. no. 12-5958-82) PE-labeled MHC class I H-2kb specific (clone AF6-88.5.5.3; Invitrogen™, Thermo Fisher Scientific Inc., Waltham, MA; cat. no. 12-5958-82), for 30 min at 4° C. After washing, the cells were subjected to flow cytometric analysis with the Attune NxT Flow Cytometer (Invitrogen). Cells were gated based on live single-cell populations and positives were assessed using isotype controls and fluor-minus-one analysis when needed. Data were analyzed using the Attune NxT software or FlowJo versions 10.7 and 10.8.

T1 sequence (P01901 22-295 limits assumed): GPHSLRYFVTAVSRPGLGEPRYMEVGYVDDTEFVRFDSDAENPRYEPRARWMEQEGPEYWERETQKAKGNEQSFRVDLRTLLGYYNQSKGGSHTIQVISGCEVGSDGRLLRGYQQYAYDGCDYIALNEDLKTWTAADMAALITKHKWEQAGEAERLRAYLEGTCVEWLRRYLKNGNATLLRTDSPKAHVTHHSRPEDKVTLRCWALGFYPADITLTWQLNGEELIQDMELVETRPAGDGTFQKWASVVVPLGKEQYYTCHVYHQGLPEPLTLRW
T1 sequence (P61769 21-119 partner): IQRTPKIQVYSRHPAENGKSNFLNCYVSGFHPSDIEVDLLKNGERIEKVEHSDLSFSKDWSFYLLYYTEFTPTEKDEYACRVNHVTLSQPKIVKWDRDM

For `O=C(O)/C=C/c1ccc2occc2c1` [BzFβ, (2E)-3-(1-benzofuran-5-yl)prop-2-enoic acid], the “displacing pre-bound peptide versus no exchange factor or provided exchange molecule” value in test [1] is “significantly better”. Besides, the “cells co-expressing MHCI bound SIINFEKL” value in test [2] is reported as “significantly more of these cells”. For the same molecule, the “B3Z activation by B16F10, OVA” value in test [3] (co-treatment with 1 mg/mL OVA, GL at 10 mM) is recorded as “failed to activate the B3Z cells”. For the same molecule, in test [3] (pre-treatment, 1 h pulse 2 nM SIINFEKL, BzFβ 25, 50 μg, GL 10 mM), the “B3Z activation by B16F10, SIINFEKL” value is recorded as “significantly activate B3Z”. In addition, the “overall surface expression (MFI) of MHC class I” value in test [4] (1-4 h) is recorded as “no significant effect”; in test [4] (24 h), “significant increase”.
